Consider 11 compounds from ChEMBL document CHEMBL1125095, “Conformational analysis and structure-activity relationships of selective dopamine D-1 receptor agonists and antagonists of the benzazepine series” (J Med Chem, 1990).

Test [1] deals with T1, Adenylate cyclase type 5 (Homo sapiens, UniProt O95622). In words: Effective dose required to stimulate Adenylate cyclase.
Target sequence in this assay (O95622 whole entry, looked up): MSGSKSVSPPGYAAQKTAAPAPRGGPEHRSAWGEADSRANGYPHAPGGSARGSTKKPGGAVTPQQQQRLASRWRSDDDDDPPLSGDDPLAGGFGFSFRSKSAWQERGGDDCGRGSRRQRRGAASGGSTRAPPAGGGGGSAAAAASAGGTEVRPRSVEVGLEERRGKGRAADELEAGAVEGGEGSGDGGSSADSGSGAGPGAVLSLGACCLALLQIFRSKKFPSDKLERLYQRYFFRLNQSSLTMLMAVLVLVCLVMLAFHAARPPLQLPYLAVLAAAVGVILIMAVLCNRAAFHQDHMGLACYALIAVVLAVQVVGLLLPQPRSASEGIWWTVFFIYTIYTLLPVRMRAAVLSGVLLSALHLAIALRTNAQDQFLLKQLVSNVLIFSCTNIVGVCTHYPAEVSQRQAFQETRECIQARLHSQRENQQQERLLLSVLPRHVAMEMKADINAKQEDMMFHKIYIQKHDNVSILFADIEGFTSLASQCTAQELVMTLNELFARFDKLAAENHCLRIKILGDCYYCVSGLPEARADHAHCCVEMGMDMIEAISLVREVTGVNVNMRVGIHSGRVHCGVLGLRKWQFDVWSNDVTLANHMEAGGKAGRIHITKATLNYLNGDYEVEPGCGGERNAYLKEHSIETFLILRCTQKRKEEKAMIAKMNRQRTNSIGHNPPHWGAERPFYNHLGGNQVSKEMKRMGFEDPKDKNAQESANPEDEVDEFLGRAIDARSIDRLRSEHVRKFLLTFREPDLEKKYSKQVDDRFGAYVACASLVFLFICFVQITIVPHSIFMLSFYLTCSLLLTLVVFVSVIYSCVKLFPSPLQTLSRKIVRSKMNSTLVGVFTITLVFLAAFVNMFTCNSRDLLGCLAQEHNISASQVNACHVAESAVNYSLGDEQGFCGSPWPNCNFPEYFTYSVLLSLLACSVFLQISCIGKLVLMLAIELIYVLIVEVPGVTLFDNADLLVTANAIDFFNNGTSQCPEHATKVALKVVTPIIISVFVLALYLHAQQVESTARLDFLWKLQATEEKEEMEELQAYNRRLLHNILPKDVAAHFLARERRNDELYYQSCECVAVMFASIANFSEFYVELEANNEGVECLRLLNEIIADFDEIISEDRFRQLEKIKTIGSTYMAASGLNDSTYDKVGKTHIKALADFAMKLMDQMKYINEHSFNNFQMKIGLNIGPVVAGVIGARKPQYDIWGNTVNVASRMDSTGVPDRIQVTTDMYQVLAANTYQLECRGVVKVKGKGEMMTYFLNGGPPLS
In test [2] the target is T2, D(1A) dopamine receptor (Homo sapiens, UniProt P21728). In words: Binding affinity to displace [3H]- SCH 23390 against Dopamine receptor D1.
T2 sequence (P21728 whole entry): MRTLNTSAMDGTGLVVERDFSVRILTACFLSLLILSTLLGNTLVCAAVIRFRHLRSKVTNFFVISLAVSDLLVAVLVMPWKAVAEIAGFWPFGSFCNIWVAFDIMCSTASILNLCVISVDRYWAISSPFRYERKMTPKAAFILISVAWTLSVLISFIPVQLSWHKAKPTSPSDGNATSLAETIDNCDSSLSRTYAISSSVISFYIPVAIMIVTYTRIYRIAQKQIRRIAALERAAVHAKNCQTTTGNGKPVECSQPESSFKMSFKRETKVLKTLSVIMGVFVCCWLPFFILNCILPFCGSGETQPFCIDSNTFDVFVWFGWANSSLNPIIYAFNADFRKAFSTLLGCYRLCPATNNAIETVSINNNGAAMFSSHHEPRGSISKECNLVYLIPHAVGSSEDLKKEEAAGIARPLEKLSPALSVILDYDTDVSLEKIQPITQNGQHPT
The target in test [3] is T1, Adenylate cyclase type 5. The test is described as follows: Effective concentration required to stimulate Adenylate cyclase; Inactive.
Target sequence in this assay (O95622 whole entry): as the sequence (O95622 whole entry, looked up) above
Test [4] has as its target T2, D(1A) dopamine receptor. The test is described as follows: Binding affinity to displace [3H]-SCH- 23390 against Dopamine receptor D1.
Test [5] has as its target D(1A) dopamine receptor (Rattus norvegicus, UniProt P18901). The test is described as follows: Binding affinity against Dopamine receptor D1 in rat radioligand.
Test [6] deals with T1, Adenylate cyclase type 5. The test is described as follows: Effective concentration required to stimulate Adenylate cyclase.
Target sequence in this assay (O95622 whole entry, looked up): as above

Sequence of D(1A) dopamine receptor (Rattus norvegicus, UniProt P18901) (P18901 whole entry): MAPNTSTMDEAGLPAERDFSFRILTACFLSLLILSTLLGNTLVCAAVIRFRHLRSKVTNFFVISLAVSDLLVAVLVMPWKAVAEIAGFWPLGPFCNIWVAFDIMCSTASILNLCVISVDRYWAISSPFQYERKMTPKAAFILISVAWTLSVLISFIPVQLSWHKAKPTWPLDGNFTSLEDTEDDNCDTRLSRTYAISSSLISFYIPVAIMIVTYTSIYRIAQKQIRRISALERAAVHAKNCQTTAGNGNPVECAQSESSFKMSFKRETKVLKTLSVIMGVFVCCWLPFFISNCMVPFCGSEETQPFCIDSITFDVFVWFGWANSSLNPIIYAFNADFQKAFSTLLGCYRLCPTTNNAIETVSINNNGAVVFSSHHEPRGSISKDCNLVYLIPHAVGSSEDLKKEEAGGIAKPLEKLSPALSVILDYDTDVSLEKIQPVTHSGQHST

Compound `Oc1cc2c(cc1O)[C@@H](c1ccccc1)CNCC2` had an ED50 on Adenylate cyclase type 5 [1] of 63 nM. Compound `Cc1cccc([C@H]2CN(C)CCc3cc(Cl)c(O)cc32)c1` displayed an inhibition constant Ki at D(1A) dopamine receptor [2] of 0.4 nM. Consider `Cc1c(O)c(O)cc2c1[C@@H](c1ccccc1)CNCC2`, for which, at Adenylate cyclase type 5 [3], the EC50 result is listed as “Not Active”. At D(1A) dopamine receptor [4], `CN1CCc2cc(Cl)c(O)cc2[C@@H](c2cccc3ccoc23)C1` registered a Ki of 6 nM. Compound `Oc1cc2c3c(c1O)CC[C@H]3CNC[C@@H]2c1ccccc1` had a Control at Adenylate cyclase type 5 [1] of 20%. Further, the affinity at D(1A) dopamine receptor [5] corresponds to a Ki of 1220 nM. With `Cc1cccc([C@H]2CNCCc3cc(O)c(O)cc32)c1`, the Response on Adenylate cyclase type 5 [6] came out at 71%. `Cc1ccccc1[C@H]1CN(C)CCc2cc(Cl)c(O)cc21`: at D(1A) dopamine receptor [2], the inhibition constant (Ki) was 0.8 nM. Still for that read-out and setting: next, `CN1CCc2cc(Cl)c(O)cc2[C@H]2c3ccccc3C[C@@H]21`: 7 nM. Consider `Cc1ccccc1[C@H]1CNCCc2cc(O)c(O)cc21`, for which, on Adenylate cyclase type 5 [3], the EC50 entry is on record as “Not Active”. With `Oc1cc2c3c(c1O)CC[C@@H]3CNC[C@@H]2c1ccccc1`, the ED50 at Adenylate cyclase type 5 [1] turned out to be 430 nM. The compound also gave a Ki on D(1A) dopamine receptor [5] of 24 nM.

On to `Cc1ccc([C@H]2CN(C)CCc3cc(Cl)c(O)cc32)cc1`, for which the affinity at D(1A) dopamine receptor [2], expressed as Ki, was 1.6 nM.

As a reminder, the Ki is a measure of affinity in units of concentration, obtained from inhibition or displacement. A higher Ki goes with lower affinity.
